Test results: patent publication US4650785A, “Pharmaceutical composition having an excellent absorption property” (Ajinomoto Company Incoporated, priority 1982, dated 1987)
Where a SMILES comes first, the peptide text is derived from it. [ ]: non-standard residue; d: D form. The star is where a group is joined. Cbz = O=C(OCc1ccccc1)*

Key:
Female ICR-CD-1 mice = assay: Oral administration of absorption promoter mixed with insulin to mice: decrease in blood glucose and elevation of blood insulin versus control; assay type: in vivo; parameters: Degree of Elevation of Blood Insulin: unit not given here
Method: The absorption promoter samples listed in Table 2 were dissolved or suspended in 0.5% CMC-0.05M tris-HCl buffers (pH: 7.8) and the solutions or suspensions were mixed with aqueous insulin solution. Female ICR-CD-1 mice 5 to 7 weeks old were orally administered predetermined amounts of the mixtures. A predetermined duration later, the percent decrease in blood glucose and the degree of elevation of blood insulin as compared with the control group were measured. The symbol "Z" in the structural formulas in the table represents a benzyloxycarbonyl group. The upper figures in the columns "effectiveness" represent the percent decrease in blood glucose and the lower parenthesized figures indicate the degree of elevation in blood insulin.

Female CD-1(ICR) Mice = assay: Toxicity studies of phenylalanine derivatives (LD50); assay type: in vivo
From the text: Toxicity Studies of Phenylalanine Derivatives with Oral IN Potentiating Activity in Female CD-1(ICR) Mice are as follows:
Phenylalanine derivatives were suspended in 0.5% CMC.

[1] = oral, mice, sample 3.0 mg/10 g with insulin 2.5 U/10 g body weight, 30 minutes, vs control group
[2] = oral, mice, sample 3.0 mg/10 g with insulin 2.5 U/10 g body weight, 60 minutes, vs control group
[3] = oral, mice, sample 6.0 mg/10 g with insulin 2.5 U/10 g body weight, 30 minutes, vs control group
[4] = oral, mice, sample 6.0 mg/10 g with insulin 2.5 U/10 g body weight, 60 minutes, vs control group
[5] = oral, mice, sample 12.5 mg/10 g with insulin 2.5 U/10 g body weight, 30 minutes, vs control group
[6] = oral, mice, sample 12.5 mg/10 g with insulin 2.5 U/10 g body weight, 60 minutes, vs control group
[7] = oral, mice, sample 3.1 mg/10 g with insulin 2.5 U/10 g body weight, 30 minutes, vs control group
[8] = oral, mice, sample 3.1 mg/10 g with insulin 2.5 U/10 g body weight, 60 minutes, vs control group
[9] = female CD-1(ICR) mice, suspended in 0.5% CMC
[10] = oral, mice, sample 1.5 mg/10 g with insulin 2.5 U/10 g body weight, 30 minutes, vs control group
[11] = oral, mice, sample 1.5 mg/10 g with insulin 2.5 U/10 g body weight, 60 minutes, vs control group

SMILES	Decrease in Blood Glucose (%) (Female ICR-CD-1 mice; [2])	Decrease in Blood Glucose (%) (Female ICR-CD-1 mice; [3])	Degree of Elevation of Blood Insulin (Female ICR-CD-1 mice; [3])	Decrease in Blood Glucose (%) (Female ICR-CD-1 mice; [4])	Degree of Elevation of Blood Insulin (Female ICR-CD-1 mice; [4])	further results
O=C(NC(Cc1ccc(F)cc1)C(=O)N[C@@H](Cc1ccccc1)C(=O)O)OCc1ccccc1 (mixture of isomers) [Sample S-22, N-benzyloxycarbonyl-4-fluoro-DL-phenylalanyl-L-phenylalanine]	51.9	–	–	–	–	Decrease in Blood Glucose (%) (Female ICR-CD-1 mice; [1]): 63.7%
O=C(N[C@@H](Cc1ccccc1)C(=O)NC(Cc1ccc(F)cc1)C(=O)O)OCc1ccccc1 (mixture of isomers) [Sample S-23, N-benzyloxycarbonyl-L-phenylalanyl-4-fluoro-DL-phenylalanine]	39.4	–	–	–	–	Decrease in Blood Glucose (%) (Female ICR-CD-1 mice; [1]): 67.5%
O=C(COc1ccc([N+](=O)[O-])cc1)NC(Cc1ccc([N+](=O)[O-])cc1)C(=O)O (racemic) [Sample S-2, N-[(4-nitrophenoxy)acetyl]-4-nitro-DL-phenylalanine]	–	23.2	> 119	60.0	89.7	–
Cc1ccc(S(=O)(=O)NC(Cc2ccccc2)C(=O)O)cc1 (racemic) [Sample S-34, N-(4-toluenesulfonyl)-DL-phenylalanine]	–	27.3	13.8	93.1	6.52	–
O=C(Cc1cccc2ccccc12)N[C@@H](Cc1ccccc1)C(=O)O [Sample S-1, N-[(1-naphthyl)acetyl]-L-phenylalanine]	–	84.9	56.4	75.4	60.0	–
O=C(C=Cc1ccccc1)N[C@@H](Cc1ccccc1)C(=O)O [Sample S-3, N-cinnamoyl-L-phenylalanine]	–	84.4	34.2	84.3	68.1	LD50 (mg/kg) (Female CD-1(ICR) Mice; mouse, in vivo): > 2,500 mg/kg
O=C(N[C@@H](Cc1ccc(OC(=O)OCc2ccccc2)cc1)C(=O)O)OCc1ccccc1 [Sample S-4, N,O-bis-(benzyloxycarbonyl)-L-tyrosine]	31.1	–	–	–	–	Decrease in Blood Glucose (%) (Female ICR-CD-1 mice; [1]): 52.7%; Degree of Elevation of Blood Insulin (Female ICR-CD-1 mice; [1]): 6.54; Degree of Elevation of Blood Insulin (Female ICR-CD-1 mice; [2]): 2.04
O=C(COc1ccccc1)N[C@@H](Cc1ccccc1)C(=O)O [Sample S-5, N-phenoxyacetyl-L-phenylalanine]	–	–	–	–	–	Decrease in Blood Glucose (%) (Female ICR-CD-1 mice; [5]): 57.9%; Degree of Elevation of Blood Insulin (Female ICR-CD-1 mice; [5]): 88.5; Decrease in Blood Glucose (%) (Female ICR-CD-1 mice; [6]): 33.5%; Degree of Elevation of Blood Insulin (Female ICR-CD-1 mice; [6]): 18.0; LD50 (mg/kg) (Female CD-1(ICR) Mice; mouse, in vivo): > 4,000 mg/kg
O=C(COc1ccccc1)N[C@@H](Cc1ccc([N+](=O)[O-])cc1)C(=O)O [Sample S-6, N-phenoxyacetyl-4-nitro-L-phenylalanine]	–	–	–	–	–	Decrease in Blood Glucose (%) (Female ICR-CD-1 mice; [7]): 21.5%; Degree of Elevation of Blood Insulin (Female ICR-CD-1 mice; [7]): 20.6; Decrease in Blood Glucose (%) (Female ICR-CD-1 mice; [8]): 44.7%; Degree of Elevation of Blood Insulin (Female ICR-CD-1 mice; [8]): 21.8
O=C(N[C@@H](Cc1ccccc1)C(=O)N[C@@H](Cc1ccccc1)C(=O)O)OCc1ccccc1 [Sample S-7, N-benzyloxycarbonyl-L-phenylalanyl-L-phenylalanine] (Cbz-Phe-Phe-OH)	40.6	–	–	–	–	Decrease in Blood Glucose (%) (Female ICR-CD-1 mice; [1]): 70.0%; Degree of Elevation of Blood Insulin (Female ICR-CD-1 mice; [1]): 7.72; Degree of Elevation of Blood Insulin (Female ICR-CD-1 mice; [2]): 9.35; LD50 (mg/kg) (Female CD-1(ICR) Mice; [9]): > 3,000 mg/kg
O=C(CCCc1ccccc1)N[C@@H](Cc1ccccc1)C(=O)O [Sample S-8, N-(4-phenylbutyrol)-L-phenylalanine]	–	57.1	7.31	35.6	9.64	–
O=C(COc1ccccc1)N[C@H](Cc1ccccc1)C(=O)O [Sample S-9, N-phenoxyacetyl-D-phenylalanine]	29.7	–	–	–	–	Decrease in Blood Glucose (%) (Female ICR-CD-1 mice; [1]): 37.3%; Degree of Elevation of Blood Insulin (Female ICR-CD-1 mice; [1]): 11.8; Degree of Elevation of Blood Insulin (Female ICR-CD-1 mice; [2]): 2.67
O=C(N[C@@H](Cc1ccccc1)C(=O)N[C@@H](Cc1ccc(O)cc1)C(=O)O)OCc1ccccc1 [Sample S-10, N-benzyloxycarbonyl-L-phenylalanyl-L-tyrosine] (Cbz-Phe-Tyr-OH)	–	61.5	41.9	43.4	4.85	LD50 (mg/kg) (Female CD-1(ICR) Mice; [9]): > 3,000 mg/kg
O=C(COc1cccc2ccccc12)N[C@@H](Cc1ccccc1)C(=O)O [Sample S-11, N-[(1-naphthoxy)acetyl]-L-phenylalanine]	–	54.0	11.8	59.7	5.07	LD50 (mg/kg) (Female CD-1(ICR) Mice; mouse, in vivo): > 4,000 mg/kg
O=C(COc1ccc2ccccc2c1)N[C@@H](Cc1ccccc1)C(=O)O [Sample S-12, N-[(2-naphthoxy)acetyl]-L-phenylalanine]	–	50.8	6.05	66.8	5.62	LD50 (mg/kg) (Female CD-1(ICR) Mice; mouse, in vivo): > 4,000 mg/kg
O=C(COc1ccc(Cl)cc1)N[C@@H](Cc1ccccc1)C(=O)O [Sample S-13, N-[(4-chlorophenoxy)acetyl]-L-phenylalanine]	–	–	–	–	–	Decrease in Blood Glucose (%) (Female ICR-CD-1 mice; [10]): 31.9%; Degree of Elevation of Blood Insulin (Female ICR-CD-1 mice; [10]): 43.4; Decrease in Blood Glucose (%) (Female ICR-CD-1 mice; [11]): 18.5%; Degree of Elevation of Blood Insulin (Female ICR-CD-1 mice; [11]): 9.82; LD50 (mg/kg) (Female CD-1(ICR) Mice; mouse, in vivo): > 3,500 mg/kg
O=C(N[C@@H](Cc1ccccc1)C(=O)O)c1ccccc1 [Sample S-14, N-benzoyl-L-phenylalanine]	–	35.2	6.31	37.8	3.31	–
O=C(N[C@@H](Cc1ccc(O)cc1)C(=O)O)OCc1ccccc1 [Sample S-16, N-benzyloxycarbonyl-L-tyrosine]	–	31.0	50.0	–	2.99	Decrease in Blood Glucose (%) (Female ICR-CD-1 mice; po, 6 mg, 1 h): 27.2%
O=C(N[C@H](Cc1ccccc1)C(=O)N[C@@H](Cc1ccccc1)C(=O)O)OCc1ccccc1 [Sample S-20, N-benzyloxycarbonyl-D-phenylalanyl-L-phenylalanine] (Cbz-[dF]-Phe-OH)	–	–	–	–	–	Decrease in Blood Glucose (%) (Female ICR-CD-1 mice; [10]): 22.4%; Degree of Elevation of Blood Insulin (Female ICR-CD-1 mice; [10]): 2.33; Decrease in Blood Glucose (%) (Female ICR-CD-1 mice; [11]): 32.7%; Degree of Elevation of Blood Insulin (Female ICR-CD-1 mice; [11]): 2.46
O=C(N[C@@H](Cc1ccccc1)C(=O)N[C@H](Cc1ccccc1)C(=O)O)OCc1ccccc1 [Sample S-21, N-benzyloxycarbonyl-L-phenylalanyl-D-phenylalanine] (Cbz-Phe-[dF]-OH)	–	42.6	14.9	32.7	5.26	–
O=C(C=Cc1ccc(Cl)cc1)N[C@@H](Cc1ccccc1)C(=O)O [Sample S-24, N-(4-chlorocinnamoyl)-L-phenylalanine]	–	–	–	–	–	Decrease in Blood Glucose (%) (Female ICR-CD-1 mice; [10]): 37.1%; Degree of Elevation of Blood Insulin (Female ICR-CD-1 mice; [10]): 5.46; Decrease in Blood Glucose (%) (Female ICR-CD-1 mice; [11]): 27.4%; Degree of Elevation of Blood Insulin (Female ICR-CD-1 mice; [11]): 3.04
O=C(C=Cc1ccc(Cl)cc1)N[C@H](Cc1ccccc1)C(=O)O [Sample S-25, N-(4-chlorocinnamoyl)-D-phenylalanine]	–	–	–	–	–	Decrease in Blood Glucose (%) (Female ICR-CD-1 mice; [10]): 34.9%; Decrease in Blood Glucose (%) (Female ICR-CD-1 mice; [11]): 29.5%
Cc1ccc(C=CC(=O)N[C@@H](Cc2ccccc2)C(=O)O)cc1 [Sample S-27, N-(4-methylcinnamoyl)-L-phenylalanine]	–	–	–	–	–	Decrease in Blood Glucose (%) (Female ICR-CD-1 mice; [10]): 61.5%; Degree of Elevation of Blood Insulin (Female ICR-CD-1 mice; [10]): 7.76; Decrease in Blood Glucose (%) (Female ICR-CD-1 mice; [11]): 34.4%; Degree of Elevation of Blood Insulin (Female ICR-CD-1 mice; [11]): 1.0
O=C(C=Cc1cccc(C(F)(F)F)c1)N[C@@H](Cc1ccccc1)C(=O)O [Sample S-30, N-(3-trifluoromethylcinnamoyl)-L-phenylalanine]	44.4	–	–	–	–	Decrease in Blood Glucose (%) (Female ICR-CD-1 mice; [1]): 48.8%
O=C(N[C@@H](Cc1ccccc1)C(=O)O)C(F)=Cc1ccccc1 [Sample S-31, N-(α-fluorocinnamoyl)-L-phenylalanine]	72.5	–	–	–	–	Decrease in Blood Glucose (%) (Female ICR-CD-1 mice; [1]): 33.5%
COc1cccc(C=CC(=O)N[C@@H](Cc2ccccc2)C(=O)N[C@@H](Cc2ccccc2)C(=O)O)c1 [Sample S-32, N-(3-methoxycinnamoyl)-L-phenylalanyl-L-phenylalanine]	23.8	–	–	–	–	Degree of Elevation of Blood Insulin (Female ICR-CD-1 mice; [2]): 4.55
Cc1ccc(S(=O)(=O)N[C@@H](Cc2ccccc2)C(=O)O)cc1 [Sample S-33, N-(4-toluenesulfonyl)-L-phenylalanine]	–	51.6	18.1	21.4	6.48	–
O=C(C=Cc1cccc(C(F)(F)F)c1)N[C@H](Cc1ccccc1)C(=O)O [Sample S-36, N-(3-trifluoromethylcinnamoyl)-D-phenylalanine]	49.1	–	–	–	–	Decrease in Blood Glucose (%) (Female ICR-CD-1 mice; [1]): 52.0%
